Measured values published in PMC8364686, “Safety, tolerability, pharmacokinetics and pharmacodynamics of single oral doses of BI 187004, an inhibitor of 11beta-hydroxysteroid dehydrogenase-1, in healthy male volunteers with overweight or obesity” (Clinical Diabetes and Endocrinology, 2021).

Experiment: Plasma pharmacokinetics of BI 187004 after single oral doses (LC–MS/MS)
Settings: male, human, plasma, po; for concentration at 10 h: planned time 10 h; for concentration at 12 h: planned time 12 h; for concentration at 36 h: planned time 36 h; for concentration at 48 h: planned time 48 h; for concentration at 72 h: planned time 72 h; for concentration at 96 h: planned time 96 h; for concentration at 0.5 h: planned time 0.5 h; for concentration at 1 h: planned time 1 h; for concentration at 1.5 h: planned time 1.5 h; for concentration at 2 h: planned time 2 h; for concentration at 2.5 h: planned time 2.5 h; for concentration at 3 h: planned time 3 h; for concentration at 4 h: planned time 4 h; for concentration at 5 h: planned time 5 h; for concentration at 6 h: planned time 6 h; for concentration at 8 h: planned time 8 h
[1] = 40 mg, BI 187004 plasma concentrations, 40 mg single oral, Max
[2] = 40 mg, BI 187004 plasma concentrations, 40 mg single oral, Mean
[3] = 40 mg, BI 187004 plasma concentrations, 40 mg single oral, Median
[4] = 40 mg, BI 187004 plasma concentrations, 40 mg single oral, Min
[5] = 40 mg, BI 187004 plasma concentrations, 40 mg single oral, gMean
[6] = 80 mg, BI 187004 plasma concentrations, 80 mg single oral, Max
[7] = 80 mg, BI 187004 plasma concentrations, 80 mg single oral, Mean
[8] = 80 mg, BI 187004 plasma concentrations, 80 mg single oral, Median
[9] = 80 mg, BI 187004 plasma concentrations, 80 mg single oral, Min
[10] = 80 mg, BI 187004 plasma concentrations, 80 mg single oral, gMean

Q: Which concentration at 10 h [1] does the source give for N#Cc1ccc2c(c1)[C@H]1CCCN(C(=O)c3ccc4[nH]cnc4c3)[C@H]1C2 [BI 187004] here?
A: Its concentration at 10 h is 1140 nM.

Q: And the concentration at 10 h [2]?
A: The concentration at 10 h was 825 nM.

Q: What about the concentration at 10 h [3] of the same molecule?
A: The concentration at 10 h was 815 nM.

Q: What about the concentration at 10 h [4] of the same molecule?
A: Its concentration at 10 h is 467 nM.

Q: And the concentration at 10 h [5]?
A: The concentration at 10 h was 796 nM.

Q: And the concentration at 12 h [1]?
A: Its concentration at 12 h is 984 nM.

Q: And the concentration at 12 h [2]?
A: Its concentration at 12 h is 683 nM.

Q: And the concentration at 12 h [3]?
A: The concentration at 12 h was 690 nM.

Q: And the concentration at 12 h [4]?
A: The concentration at 12 h was 359 nM.

Q: And the concentration at 12 h [5]?
A: Its concentration at 12 h is 650 nM.

Q: And the concentration at 24 h (40 mg, BI 187004 plasma concentrations, 40 mg single oral, planned time 24 h, Max)?
A: The concentration at 24 h was 625 nM.

Q: What about the concentration at 24 h (40 mg, BI 187004 plasma concentrations, 40 mg single oral, planned time 24 h, Mean) of the same molecule?
A: Its concentration at 24 h is 353 nM.

Q: And the concentration at 24 h (40 mg, BI 187004 plasma concentrations, 40 mg single oral, planned time 24 h, Median)?
A: The concentration at 24 h was 335 nM.

Q: And the concentration at 24 h (40 mg, BI 187004 plasma concentrations, 40 mg single oral, planned time 24 h, Min)?
A: Its concentration at 24 h is 169 nM.

Q: What about the concentration at 24 h (40 mg, BI 187004 plasma concentrations, 40 mg single oral, planned time 24 h, gMean) of the same molecule?
A: Its concentration at 24 h is 321 nM.

Q: And the concentration at 36 h [1]?
A: The concentration at 36 h was 377 nM.

Q: What about the concentration at 36 h [2] of the same molecule?
A: Its concentration at 36 h is 163 nM.

Q: What about the concentration at 36 h [3] of the same molecule?
A: The concentration at 36 h was 119 nM.

Q: And the concentration at 36 h [4]?
A: Its concentration at 36 h is 51.5 nM.

Q: And the concentration at 36 h [5]?
A: The concentration at 36 h was 129 nM.

Q: What about the concentration at 48 h [1] of the same molecule?
A: The concentration at 48 h was 234 nM.

Q: And the concentration at 48 h [2]?
A: The concentration at 48 h was 95.6 nM.

Q: And the concentration at 48 h [3]?
A: Its concentration at 48 h is 66.2 nM.

Q: What about the concentration at 48 h [4] of the same molecule?
A: Its concentration at 48 h is 30.8 nM.

Q: And the concentration at 48 h [5]?
A: The concentration at 48 h was 73 nM.

Q: What about the concentration at 72 h [1] of the same molecule?
A: Its concentration at 72 h is 83.4 nM.

Q: And the concentration at 72 h [2]?
A: Its concentration at 72 h is 32 nM.

Q: What about the concentration at 72 h [3] of the same molecule?
A: Its concentration at 72 h is 22.1 nM.

Q: What about the concentration at 72 h [4] of the same molecule?
A: Its concentration at 72 h is 8.48 nM.

Q: What about the concentration at 72 h [5] of the same molecule?
A: Its concentration at 72 h is 24.3 nM.

Q: And the concentration at 96 h [1]?
A: The concentration at 96 h was 41.4 nM.

Q: And the concentration at 96 h [2]?
A: The concentration at 96 h was 15.5 nM.

Q: What about the concentration at 96 h [3] of the same molecule?
A: Its concentration at 96 h is 11.1 nM.

Q: And the concentration at 96 h [4]?
A: Its concentration at 96 h is 5.05 nM.

Q: And the concentration at 96 h [5]?
A: The concentration at 96 h was 12.2 nM.

Q: What about the concentration at 24 h (40 mg, C24 gMean (%gCV), 40 mg single oral dose) of the same molecule?
A: Its concentration at 24 h is 321 nM.

Q: And the AUC(0-inf) (80 mg)?
A: The AUC(0-inf) was 51.1 µM·h.

Q: And the AUC(0-t) (80 mg)?
A: Its AUC(0-t) is 43.1 µM·h.

Q: What about the Cmax (80 mg) of the same molecule?
A: Its Cmax is 2460 nM.

Q: What about the Tmax (80 mg) of the same molecule?
A: The Tmax was 2.25 h.

Q: And the Vd/F (80 mg)?
A: Its Vd/F is 113 L.

Q: What about the half-life (80 mg) of the same molecule?
A: Its half-life is 17.1 h.

Q: And the concentration at 0.5 h [6]?
A: The concentration at 0.5 h was 4480 nM.

Q: What about the concentration at 0.5 h [7] of the same molecule?
A: The concentration at 0.5 h was 1780 nM.

Q: What about the concentration at 0.5 h [8] of the same molecule?
A: Its concentration at 0.5 h is 1020 nM.

Q: And the concentration at 0.5 h [9]?
A: The concentration at 0.5 h was 304 nM.

Q: What about the concentration at 0.5 h [10] of the same molecule?
A: Its concentration at 0.5 h is 1150 nM.

Q: And the concentration at 1 h [6]?
A: Its concentration at 1 h is 4770 nM.

Q: What about the concentration at 1 h [7] of the same molecule?
A: Its concentration at 1 h is 2490 nM.

Q: What about the concentration at 1 h [8] of the same molecule?
A: The concentration at 1 h was 2300 nM.

Q: And the concentration at 1 h [9]?
A: The concentration at 1 h was 771 nM.

Q: What about the concentration at 1 h [10] of the same molecule?
A: The concentration at 1 h was 2120 nM.

Q: And the concentration at 1.5 h [6]?
A: The concentration at 1.5 h was 4150 nM.

Q: And the concentration at 1.5 h [7]?
A: The concentration at 1.5 h was 2500 nM.

Q: What about the concentration at 1.5 h [8] of the same molecule?
A: The concentration at 1.5 h was 2540 nM.

Q: What about the concentration at 1.5 h [9] of the same molecule?
A: The concentration at 1.5 h was 958 nM.

Q: And the concentration at 1.5 h [10]?
A: Its concentration at 1.5 h is 2220 nM.

Q: What about the concentration at 2 h [6] of the same molecule?
A: Its concentration at 2 h is 3590 nM.

Q: What about the concentration at 2 h [7] of the same molecule?
A: Its concentration at 2 h is 2330 nM.

Q: And the concentration at 2 h [8]?
A: Its concentration at 2 h is 2400 nM.

Q: What about the concentration at 2 h [9] of the same molecule?
A: Its concentration at 2 h is 1000 nM.

Q: And the concentration at 2 h [10]?
A: Its concentration at 2 h is 2130 nM.

Q: What about the concentration at 2.5 h [6] of the same molecule?
A: Its concentration at 2.5 h is 3200 nM.

Q: And the concentration at 2.5 h [7]?
A: The concentration at 2.5 h was 2350 nM.

Q: And the concentration at 2.5 h [8]?
A: Its concentration at 2.5 h is 2650 nM.

Q: And the concentration at 2.5 h [9]?
A: Its concentration at 2.5 h is 1200 nM.

Q: What about the concentration at 2.5 h [10] of the same molecule?
A: The concentration at 2.5 h was 2200 nM.

Q: And the concentration at 3 h [6]?
A: Its concentration at 3 h is 3340 nM.

Q: And the concentration at 3 h [7]?
A: Its concentration at 3 h is 2240 nM.

Q: What about the concentration at 3 h [8] of the same molecule?
A: Its concentration at 3 h is 2470 nM.

Q: And the concentration at 3 h [9]?
A: The concentration at 3 h was 1050 nM.

Q: And the concentration at 3 h [10]?
A: The concentration at 3 h was 2070 nM.

Q: What about the concentration at 4 h [6] of the same molecule?
A: The concentration at 4 h was 3200 nM.

Q: And the concentration at 4 h [7]?
A: Its concentration at 4 h is 2200 nM.

Q: What about the concentration at 4 h [8] of the same molecule?
A: Its concentration at 4 h is 2460 nM.

Q: And the concentration at 4 h [9]?
A: Its concentration at 4 h is 936 nM.

Q: What about the concentration at 4 h [10] of the same molecule?
A: The concentration at 4 h was 2020 nM.

Q: And the concentration at 5 h [6]?
A: Its concentration at 5 h is 3210 nM.

Q: And the concentration at 5 h [7]?
A: The concentration at 5 h was 1980 nM.

Q: And the concentration at 5 h [8]?
A: The concentration at 5 h was 2040 nM.

Q: And the concentration at 5 h [9]?
A: Its concentration at 5 h is 905 nM.

Q: What about the concentration at 5 h [10] of the same molecule?
A: Its concentration at 5 h is 1840 nM.

Q: And the concentration at 6 h [6]?
A: Its concentration at 6 h is 2460 nM.

Q: And the concentration at 6 h [7]?
A: The concentration at 6 h was 1740 nM.

Q: What about the concentration at 6 h [8] of the same molecule?
A: The concentration at 6 h was 1870 nM.

Q: What about the concentration at 6 h [9] of the same molecule?
A: The concentration at 6 h was 930 nM.

Q: And the concentration at 6 h [10]?
A: The concentration at 6 h was 1650 nM.

Q: And the concentration at 8 h [6]?
A: The concentration at 8 h was 2840 nM.

Q: And the concentration at 8 h [7]?
A: The concentration at 8 h was 1820 nM.

Q: What about the concentration at 8 h [8] of the same molecule?
A: The concentration at 8 h was 1690 nM.

Q: And the concentration at 8 h [9]?
A: The concentration at 8 h was 1100 nM.

Q: What about the concentration at 8 h [10] of the same molecule?
A: Its concentration at 8 h is 1740 nM.

Q: What about the concentration at 10 h [6] of the same molecule?
A: The concentration at 10 h was 2570 nM.

Q: What about the concentration at 10 h [7] of the same molecule?
A: The concentration at 10 h was 1600 nM.

Q: What about the concentration at 10 h [8] of the same molecule?
A: The concentration at 10 h was 1460 nM.

Q: What about the concentration at 10 h [9] of the same molecule?
A: Its concentration at 10 h is 1040 nM.

Q: And the concentration at 10 h [10]?
A: Its concentration at 10 h is 1530 nM.

Q: And the concentration at 12 h [6]?
A: Its concentration at 12 h is 2210 nM.

Q: What about the concentration at 12 h [7] of the same molecule?
A: The concentration at 12 h was 1380 nM.

Q: And the concentration at 12 h [8]?
A: Its concentration at 12 h is 1210 nM.

Q: What about the concentration at 12 h [9] of the same molecule?
A: Its concentration at 12 h is 959 nM.

Q: And the concentration at 12 h [10]?
A: Its concentration at 12 h is 1320 nM.

Q: And the concentration at 24 h (80 mg, BI 187004 plasma concentrations, 80 mg single oral, planned time 24 h, Max)?
A: The concentration at 24 h was 1560 nM.

Q: What about the concentration at 24 h (80 mg, BI 187004 plasma concentrations, 80 mg single oral, planned time 24 h, Mean) of the same molecule?
A: Its concentration at 24 h is 927 nM.
